Assay results: patent publication US5137811A, “Method for diagnosing periodontal diseases with a substrate specific for aminopeptidase activity of periodontopathic bacteria” (Sunstar Kabushiki Kaisha, priority 1986, dated 1992)
Where a SMILES comes first, the peptide text is derived from it. The star is where a group is joined. pNA = O=[N+]([O-])c1ccc(N*)cc1

How the values were obtained:
Assay type in all cases: biochemical
[1] = system: periodontopathic bacteria specific aminopeptidase activity; assay: Hydrolytic activity of saliva supernatant (Experiment 8); conditions: 37° C. for 4 hours, Table 8
Method: (§1) A saliva mixture was collected from a group consisting of ten healthy subjects and centrifuged to obtain a supernatant. Likewise, centrifuged supernatants were obtained from a group of ten subjects with adult periodontitis and a group of four localized juvenile periodontitis. The supernatant was used as a specimen and its hydrolytic activity was determined according to the same manner as described in Experiment 4 except that the reaction was carried out at 37° C. for 4 hours. As the substrates, there were used N-carbobenzoxy-valyl-glycyl-arginine-p-nitrophenol (CxVGR-pNP), N-carbobenzoxy-valyl-glycylarginine-4-methoxy-2-naphthylamide (CxVGR-4NA) and N-carbobenzoxy-valyl-glycyl-arginine-β-naphthylamide (CxVGR-βNA). Color was developed by using lN sodium hydroxide for CxVGR-pNP and Fast Blue BB for CxVGR-4NA and CxVGR-βNA.
According to the same manner as described in Experiment 7, hydrolytic activity was tested by using lysylproline-p-nitroanilide (KP-pNA), lysyl-proline-4-methoxy-2-naphthylamide (KP-4NA) and lysyl-proline-β-naphthylamide (KP-βNA)as the substrates. Color was developed by using lN sodium hydroxide for KP-pNA and Fast Blue BB for KP-4-NA and KP-βNA.

[2] = system: periodontopathic bacteria specific aminopeptidase activity; assay: Hydrolytic activity of saliva supernatant, substrates alone or in combination (Experiment 9); conditions: 37° C. for 4 hours, Table 9
Method: as §1
According to the same manner as described in Experiment 7, hydrolytic activity was tested by using N-carbobenzoxy-valyl-glycyl-arginine-β-naphthylamide (CxVGR-βNA), N-benzoyl-arginyl-glycyl-phenylalanyl-proline-β-naphthylamide (BzRGFP-βNA), N-carbobenzoxy-valyl-glycylarginine-p-nitrophenol (CxVGR-pNP) and N-benzoyl-arginylglycyl-phenylalanyl-proline-p-nitrophenol (BzRGFP-pNP) alone or in combination as the substrates.

[3] = system: periodontopathic bacteria specific aminopeptidase activity; assay: Hydrolytic activity of saliva supernatant (Experiment 7); conditions: 37° C. for 4 hours, Table 7
Method: Specimens of gingival crevicular fluid were collected with paper points from five subjects who were considered to be healthy from their clinical state, six subjects with gingivitis and six subjects with periodontitis. Each specimen was dispersed in Ringer's solution (1.5 ml), and the relative amount of spirochete to total bacteria: [formula] was determined with a phase contrast microscope. Further, the Ringer's solution (0.3 ml) was tested for hydrolytic activity using the substrate solution prepared in the same manner as described in Experiment 1. As substrates, there were used compounds of the formula [1], i.e., N-benzoylvalyl-glycyl-arginine-β-naphthylamide (BzVGR) and N-carbobenzoxy-valyl-glycyl-arginine-β-naphthylamide (CxVGR) were used.
as §1

[4] = Localized juvenile periodontitis subjects

Molecule | hydrolytic activity ([1]; Adult Periodontitis subjects) [nmol/mL] | hydrolytic activity ([1]; Healthy subjects) [nmol/mL] | hydrolytic activity [1, 4] [nmol/mL] | hydrolytic activity ([2]; Adult Periodontitis subjects) [nmol/mL] | hydrolytic activity ([2]; Healthy subjects) [nmol/mL] | hydrolytic activity [2, 4] [nmol/mL] | hydrolytic activity ([3]; Adult Periodontitis subjects) [nmol/mL] | hydrolytic activity ([3]; Healthy subjects) [nmol/mL] | hydrolytic activity [3, 4] [nmol/mL]
N-benzoyl-arginylglycyl-phenylalanyl-proline-p-nitrophenol [BzRGFP-pNP] | – | – | – | 25.6 ± 8.4 | 13.3 ± 4.9 | 21.8 ± 7.8 | – | – | –
COc1cc(NC(=O)[C@H](CCCNC(=N)N)NC(=O)CNC(=O)[C@@H](NC(=O)OCc2ccccc2)C(C)C)cc2ccccc12 [CxVGR-4NA, N-carbobenzoxy-valyl-glycylarginine-4-methoxy-2-naphthylamide] | – | – | – | – | – | – | 34.6 ± 8.9 | 18.0 ± 10.8 | 32.3 ± 8.9
N-carbobenzoxy-valyl-glycyl-arginine-p-nitrophenol [CxVGR-pNP] | – | – | – | 33.5 ± 11.5 | 14.0 ± 7.9 | 28.8 ± 9.1 | 34.0 ± 9.7 | 17.0 ± 11.4 | 32.5 ± 9.6

Second part, led by results:

hydrolytic activity ([1]; Adult Periodontitis subjects) [nmol/mL] | hydrolytic activity ([1]; Healthy subjects) [nmol/mL] | hydrolytic activity [1, 4] [nmol/mL] | Molecule | hydrolytic activity ([2]; Adult Periodontitis subjects) [nmol/mL] | hydrolytic activity ([2]; Healthy subjects) [nmol/mL] | hydrolytic activity [2, 4] [nmol/mL] | hydrolytic activity ([3]; Adult Periodontitis subjects) [nmol/mL] | hydrolytic activity ([3]; Healthy subjects) [nmol/mL] | hydrolytic activity [3, 4] [nmol/mL]
34.3 ± 9.8 | 15.0 ± 9.4 | 31.5 ± 9.7 | NCCCC[C@H](N)C(=O)N1CCC[C@H]1C(=O)Nc1ccc([N+](=O)[O-])cc1 [KP-pNA, lysylproline-p-nitroanilide] (H-Lys-Pro-pNA) | – | – | – | – | – | –
35.5 ± 10.1 | 16.0 ± 10.8 | 32.3 ± 8.9 | COc1cc(NC(=O)[C@@H]2CCCN2C(=O)[C@@H](N)CCCCN)cc2ccccc12 [KP-4NA, lysyl-proline-4-methoxy-2-naphthylamide] | – | – | – | – | – | –
